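Dose response: 5 concentrations. Exposure: 48 h. Format: 96-well plates. Endpoint: linear interpolation; highest concentration if not reached. GI50 = concentration required for 50% inhibition of growth. Definition used: TGI = concentration required for complete inhibition of growth.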
Experiments:
Experiment in all cases: inhibition of tumour cell growth, NCI panel, 48 h; in the data active = GI50 below about 0.43 µM; inactive = the rest
786-0 renal = tested on: 786-0 renal
A498 renal = tested on: A498 renal
A549 NSCLC = tested on: A549 NSCLC
ACHN renal = tested on: ACHN renal
BT-549 breast = tested on: BT-549 breast
CAKI-1 renal = tested on: CAKI-1 renal
CCRF-CEM leukemia = tested on: CCRF-CEM leukemia
COLO 205 colon = tested on: COLO 205 colon
DU-145 prostate = tested on: DU-145 prostate
EKVX NSCLC = tested on: EKVX NSCLC
HCC-2998 colon = tested on: HCC-2998 colon
HCT-116 colon = tested on: HCT-116 colon
HCT-15 colon = tested on: HCT-15 colon
HL-60(TB) leukemia = tested on: HL-60(TB) leukemia
HOP-62 NSCLC = tested on: HOP-62 NSCLC
HOP-92 NSCLC = tested on: HOP-92 NSCLC
HS 578T breast = tested on: HS 578T breast
HT29 colon = tested on: HT29 colon
IGROV1 ovarian = tested on: IGROV1 ovarian
K-562 leukemia = tested on: K-562 leukemia
LOX IMVI melanoma = tested on: LOX IMVI melanoma
M14 melanoma = tested on: M14 melanoma
MALME-3M melanoma = tested on: MALME-3M melanoma
MCF7 breast = tested on: MCF7 breast
MDA-MB-231 breast = tested on: MDA-MB-231 breast
MOLT-4 leukemia = tested on: MOLT-4 leukemia
NCI-H226 lung = tested on: NCI-H226 lung
NCI-H23 lung = tested on: NCI-H23 lung
NCI-H460 lung = tested on: NCI-H460 lung
NCI-H522 lung = tested on: NCI-H522 lung
NCI/ADR-RES ovarian = tested on: NCI/ADR-RES ovarian
OVCAR-3 ovarian = tested on: OVCAR-3 ovarian
OVCAR-4 ovarian = tested on: OVCAR-4 ovarian
OVCAR-5 ovarian = tested on: OVCAR-5 ovarian
OVCAR-8 ovarian = tested on: OVCAR-8 ovarian
PC-3 prostate = tested on: PC-3 prostate
RPMI-8226 leukemia = tested on: RPMI-8226 leukemia
RXF 393 renal = tested on: RXF 393 renal
SF-268 CNS = tested on: SF-268 CNS
SF-295 CNS = tested on: SF-295 CNS
SF-539 CNS = tested on: SF-539 CNS
SK-MEL-2 melanoma = tested on: SK-MEL-2 melanoma
SK-MEL-5 melanoma = tested on: SK-MEL-5 melanoma
SK-OV-3 ovarian = tested on: SK-OV-3 ovarian
SN12C renal = tested on: SN12C renal
SNB-19 CNS = tested on: SNB-19 CNS
SNB-75 CNS = tested on: SNB-75 CNS
SR leukemia = tested on: SR leukemia
SW-620 colon = tested on: SW-620 colon
TK-10 renal = tested on: TK-10 renal
U251 CNS = tested on: U251 CNS
UACC-62 melanoma = tested on: UACC-62 melanoma
UO-31 renal = tested on: UO-31 renal

COc1ccc(CN2c3ccccc3Sc3ccccc32)c(C(F)(F)F)c1
14.7 µM: TGI (SK-MEL-2 melanoma)
93.4 µM: TGI (NCI-H23 lung)
inactive: GI50 (786-0 renal) 9.05 µM | GI50 (A549 NSCLC) 0.807 µM | GI50 (ACHN renal) 0.666 µM | GI50 (BT-549 breast) 3.12 µM | GI50 (CAKI-1 renal) 1.53 µM | GI50 (CCRF-CEM leukemia) 0.454 µM | GI50 (COLO 205 colon) 0.64 µM | GI50 (DU-145 prostate) 2.08 µM | GI50 (EKVX NSCLC) 1.2 µM | GI50 (HCC-2998 colon) 2 µM | GI50 (HCT-15 colon) 0.489 µM | GI50 (HOP-62 NSCLC) 0.604 µM | GI50 (HS 578T breast) 0.877 µM | GI50 (HT29 colon) 0.681 µM | GI50 (IGROV1 ovarian) 3.43 µM | GI50 (LOX IMVI melanoma) 0.832 µM | GI50 (M14 melanoma) 0.446 µM | GI50 (MALME-3M melanoma) 21 µM | GI50 (MDA-MB-231 breast) 3.05 µM | GI50 (MOLT-4 leukemia) 2.88 µM | GI50 (NCI-H226 lung) 10.4 µM | GI50 (NCI-H23 lung) 1.03 µM | GI50 (NCI-H460 lung) 0.456 µM | GI50 (NCI/ADR-RES ovarian) 0.462 µM | GI50 (OVCAR-3 ovarian) 0.513 µM | GI50 (OVCAR-4 ovarian) 2.17 µM | GI50 (OVCAR-5 ovarian) 9.75 µM | GI50 (OVCAR-8 ovarian) 2.22 µM | GI50 (PC-3 prostate) 0.546 µM | GI50 (RPMI-8226 leukemia) 3 µM | GI50 (SF-268 CNS) 10.9 µM | GI50 (SF-539 CNS) 0.452 µM | GI50 (SK-MEL-2 melanoma) 1.18 µM | GI50 (SK-MEL-5 melanoma) 0.5 µM | GI50 (SK-OV-3 ovarian) 0.557 µM | GI50 (SN12C renal) 9.73 µM | GI50 (SNB-19 CNS) 3.8 µM | GI50 (SR leukemia) 0.483 µM | GI50 (SW-620 colon) 0.443 µM | GI50 (TK-10 renal) 5.82 µM | GI50 (U251 CNS) 0.431 µM | GI50 (UACC-62 melanoma) 0.917 µM | GI50 (UO-31 renal) 3.98 µM
3.89 µM: TGI (SF-539 CNS)
2.67 µM: TGI (SF-295 CNS)
98.5 µM: TGI (SF-268 CNS)
15.7 µM: TGI (SK-MEL-5 melanoma)
10.9 µM: TGI (HT29 colon)
58.6 µM: TGI (MDA-MB-231 breast)
31.5 µM: TGI (RPMI-8226 leukemia)
2.84 µM: TGI (NCI-H522 lung)
3.16 µM: TGI (NCI/ADR-RES ovarian)
26.5 µM: TGI (CCRF-CEM leukemia)
31.9 µM: TGI (BT-549 breast)
13.9 µM: TGI (HL-60(TB) leukemia)
6.55 µM: TGI (RXF 393 renal)
44.9 µM: TGI (HOP-92 NSCLC)
43.4 µM: TGI (MOLT-4 leukemia)
56.3 µM: TGI (NCI-H226 lung)
10.3 µM: TGI (HCC-2998 colon)
> 100 µM: TGI (786-0 renal) | TGI (A498 renal) | TGI (ACHN renal) | TGI (CAKI-1 renal) | TGI (DU-145 prostate) | TGI (EKVX NSCLC) | TGI (HCT-15 colon) | TGI (HS 578T breast) | TGI (IGROV1 ovarian) | TGI (K-562 leukemia) | TGI (M14 melanoma) | TGI (MALME-3M melanoma) | TGI (NCI-H460 lung) | TGI (OVCAR-4 ovarian) | TGI (OVCAR-5 ovarian) | TGI (OVCAR-8 ovarian) | TGI (PC-3 prostate) | TGI (SK-OV-3 ovarian) | TGI (SN12C renal) | TGI (SNB-19 CNS) | TGI (SNB-75 CNS) | TGI (SR leukemia) | TGI (SW-620 colon) | TGI (TK-10 renal) | TGI (UACC-62 melanoma) | TGI (UO-31 renal)
active: GI50 (A498 renal) 0.372 µM | GI50 (HCT-116 colon) 0.419 µM | GI50 (HL-60(TB) leukemia) 0.412 µM | GI50 (HOP-92 NSCLC) 0.227 µM | GI50 (K-562 leukemia) 0.395 µM | GI50 (MCF7 breast) 0.349 µM | GI50 (NCI-H522 lung) 0.314 µM | GI50 (RXF 393 renal) 0.38 µM | GI50 (SF-295 CNS) 0.32 µM | GI50 (SNB-75 CNS) 0.241 µM
27.4 µM: TGI (U251 CNS)
68.5 µM: TGI (A549 NSCLC)
36.8 µM: TGI (MCF7 breast)
24.3 µM: TGI (OVCAR-3 ovarian)
33.3 µM: TGI (LOX IMVI melanoma)
35.6 µM: TGI (HOP-62 NSCLC)
21.8 µM: TGI (HCT-116 colon)
3.08 µM: TGI (COLO 205 colon)

Source: PubChem BioAssay (NCI)
